Measured values from US9642839B2, “Substance having tyrosine kinase inhibitory activity and preparation method and use thereof” (Institute of Radiation Medicine, China Academy of Military …, priority 2013, dated 2017).

Experiments:
TrkB = TrkB (Homo sapiens, UniProt Q16620); test: Western blot, BDNF-induced TrkB phosphorylation and signaling pathway in SK-N-SH cells; format: cell-based; settings: 0.05-1.0 μM, 200 ng/ml BDNF
Method: The medium was changed once every 1-2 days. […] 500 ng/mL NGF or 200 ng/ml BDNF (if not added, marked as “-”) were added to stimulate the cells for 5 min. After cell lysis, total protein was extracted. Western blot assay was carried out with TrkA phosphorylated and non-phosphorylated (p-TrkA) antibodies, TrkB phosphorylated and non-phosphorylated (p-TrkB) antibodies, ERK phosphorylated and non-phosphorylated (p-ERK) antibodies, Akt phosphorylated and non-phosphorylated (p-Akt) antibodies, and GAPDH antibody.

c-Met = settings: MHCC97-H cells, 2 μM versus 1 μM SU11274
Method: The medium was changed once every 1-2 days. […] The supernatant was discarded, and fresh medium was added for subculture.
SU11274 (purchased from Sigma) is a specific c-Met kinase inhibitor which may block activation of c-Met. […] After incubation with the compounds for 2 h, the cells were harvested and total protein was extracted. Western blot assay was carried out with c-Met phosphorylated and non-phosphorylated antibodies, ERK phosphorylated and non-phosphorylated antibodies, Akt phosphorylated and non-phosphorylated antibodies (all purchased from Cell Signaling), and GAPDH antibody (purchased from Santa Cruz).

[1] = tested on: neuroblastoma SK-N-SH cells; test: Subcutaneous SK-N-SH tumor-bearing nude mouse model; format: in vivo, nu/nu female mice; settings: SK-N-SH s.c. nude mice, once every 24 h, 6 administrations
Source text: Model establishment: nu/nu female mice of 6-8 weeks old were fed under an SPF condition in an animal facility for one week, and then each of them was inoculated with 5×10^6 neuroblastoma SK-N-SH cells (purchased from ATCC) subcutaneously in left flank. Tumor volume was monitored every day after inoculation. Once the size reached ˜100 mm^3, mice were divided into groups.
Each group included 10 animals.

MHCC-97H cells = test: Liver orthotopic tumor model; format: in vivo, nude mice; settings: for Tumor inhibition rate / Weight of tumor: 6 administrations; for Average weight (X ± S), End: animal weight at end, in g (unit assumed)
Source text: The medium was changed once every 1-2 days. […] The subcultured tumor cells were digested under a sterile condition and resuspended with sodium chloride injection, and subcutaneously inoculated at the right flank of nude mice. When the subcutaneous tumors in the nude mice grew to a volume about 1,500-2,000 mm^3, the tumor mass was removed under a sterile condition, and cut into pieces in a size about 1.0×1.0 mm for future use. Then the nude mice to be inoculated were anesthetized and fixed on the operating table. The abdominal skin was disinfected, and an incision about 1 cm was made in the left upper abdomen to expose the liver, with the surgical site covered. The prepared tumor piece was placed into a dedicated inoculation trocar, and was implanted into the liver by using the trocar. The bleeding site of the wound was treated with sterilized gauze or sterilized cotton swab to stop the bleeding. Then liver which underwent surgery was placed back into the abdominal cavity of mice. The abdominal muscles and skin were sutured with 4/0 gauge surgical needle sequentially. After normal feeding of the mice for 2 weeks, size of liver tumor was observed under B-ultrasound.
Method: Animal models were randomized into vehicle control group, intraperitoneal low dose group (18 mg/kg), intraperitoneal high dose group (36 mg/kg), and gavage group (36 mg/kg), with 9 mice each group. The mice received treatment once every 24 hours. Intraperitoneal administration was done by intraperitoneal injection. The vehicle control group received DMSO injected intraperitoneally. Six times of administration were given. After the last administration, animals were kept for another 3 weeks, then sacrificed by cervical dislocation, and dissected to obtain liver. Visible tumor was dissected and weighed.

HepG2 cells [2] = test: Subcutaneous tumor-bearing nude mice model; format: in vivo; settings: HepG2 s.c. nude mice; 16 mg/kg intraperitoneal, once every 24 h, 6 administrations; by tumor weight
Source text: (§1) The cells were washed with PBS twice, and suspended.

NCI-H460 cells = test: Subcutaneous tumor-bearing nude mice model; format: in vivo; settings: NCI-H460 s.c. nude mice; 16 mg/kg intraperitoneal, once every 24 h, 6 administrations; by tumor weight
Source text: as §1

A549 cells = test: In vitro antitumor activity, MTS cell proliferation; format: cell-based, human; settings: Homo sapiens, A549, lung cancer, 72 hours
Method: (§2) Method: 14 cell lines (MKN-45 cells, MHCC97-L cells, MHCC97-H cells, HLE cells, HepG2 cells, 7721 cells, L02 cells, A375 cells, H460 cells, A549 cells, SK-N-SH cells, MCF-7 cells, K562 cells, and Ba/F3-Tpr-Met cells (pre-B cells which are malignantly transformed by the c-Met constitutive active mutant Tpr-Met) were seeded into 96-well plate at 1×10^4 cells/well, and each well was added with 150 μl DMEM medium (purchased from Invitrogen) containing 10% fetal bovine serum (purchased from Hyclone). When cell adherent was observed, different concentrations of 2-indolone derivatives (concentrations at 0.1-10 μM) were added, in addition to the negative control (vehicle control group) and blank control (medium group). After culture at 37° C., 5% CO2 for 72 hours, MTS reagent (Promega Corporation) were added for further culture for 2-4 h.

MHCC97-H cells = test: as above; format: cell-based, human; settings: Homo sapiens, MHCC97H, hepatocellular cancer, 72 hours
Method: as §2

L02 cells = test: MTS cell proliferation, normal liver cells; format: cell-based; settings: Homo sapiens, L02, normal hepatic cells, 72 hours
Method: […] After culture at 37° C., 5% CO2 for 72 hours, MTS reagent (Promega Corporation) were added for further culture for 2-4 h.

H460 cells = test: In vitro antitumor activity, MTS cell proliferation; format: cell-based; settings: Homo sapiens, NCI-H460, H460, lung cancer, 72 hours
Method: as §2

HepG2 cells [3] = test: as above; format: cell-based; settings: Homo sapiens, HepG2, hepatocellular cancer, 72 hours
Method: as §2

MKN-45 cells = test: as above; format: cell-based; settings: Homo sapiens, MKN-45, gastric cancer, 72 hours
Method: as §2

MHCC97-L cells = test: as above; format: cell-based; settings: MHCC97L, hepatocellular cancer, 72 hours
Method: as §2

SK-N-SH cells = test: as above; format: cell-based; settings: Homo sapiens, neuroblastoma, 72 hours
Method: as §2

A375 cells = test: as above; format: cell-based; settings: Homo sapiens, A-375, A375, skin cancer, 72 hours
Method: as §2

K562 cells = test: as above; format: cell-based; settings: Homo sapiens, K562, leukemia, 72 hours
Method: as §2

[4] = intraperitoneal high dose 36 mg/kg
[5] = intraperitoneal low dose 18 mg/kg

Sequence of TrkB (Q16620 32-822, species assumed): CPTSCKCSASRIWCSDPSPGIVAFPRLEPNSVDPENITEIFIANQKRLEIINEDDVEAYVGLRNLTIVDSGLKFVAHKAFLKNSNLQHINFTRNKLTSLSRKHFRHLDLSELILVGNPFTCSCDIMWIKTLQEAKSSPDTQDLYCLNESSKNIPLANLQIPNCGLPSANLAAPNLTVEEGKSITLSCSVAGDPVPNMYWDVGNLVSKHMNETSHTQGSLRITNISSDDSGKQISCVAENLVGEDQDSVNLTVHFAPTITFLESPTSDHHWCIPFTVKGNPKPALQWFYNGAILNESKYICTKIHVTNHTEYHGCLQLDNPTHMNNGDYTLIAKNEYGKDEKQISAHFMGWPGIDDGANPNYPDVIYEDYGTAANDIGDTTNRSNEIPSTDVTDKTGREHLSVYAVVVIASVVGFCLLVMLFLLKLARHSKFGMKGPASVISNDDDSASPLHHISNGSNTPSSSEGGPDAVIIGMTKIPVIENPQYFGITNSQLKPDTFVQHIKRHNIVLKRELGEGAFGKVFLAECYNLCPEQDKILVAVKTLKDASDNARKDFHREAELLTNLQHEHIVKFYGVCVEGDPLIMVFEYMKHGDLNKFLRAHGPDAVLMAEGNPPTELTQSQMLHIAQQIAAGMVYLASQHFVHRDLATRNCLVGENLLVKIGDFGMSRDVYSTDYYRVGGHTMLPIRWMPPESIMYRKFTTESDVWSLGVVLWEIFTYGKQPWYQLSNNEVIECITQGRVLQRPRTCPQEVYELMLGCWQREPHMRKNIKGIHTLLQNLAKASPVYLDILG

For Cc1ccccc1NS(=O)(=O)c1ccc2c(c1)/C(=C/c1nc3ccccc3[nH]1)C(=O)N2 [Indo 5, 3-(1H-benzimidazol-2-methylene)-5-(2-methylphenylaminosulfo)-2-indolone], the “Phosphorylation of TrkB and downstream ERK and Akt” value (TrkB) was “significantly inhibited”, the “Inhibitory effect on c-Met phosphorylation versus positive control” value (c-Met) was “comparable to the positive control SU11274” and the Tumor inhibition rate ([1]; 16 mg/kg gavage) was 48%. The Tumor inhibition rate ([1]; 16 mg/kg intraperitoneal) was 50%, the Tumor inhibition rate (MHCC-97H cells; gavage (PO) 36 mg/kg) was 62.2% and the Weight of tumor (MHCC-97H cells; gavage (PO) 36 mg/kg) was 0.401 ± 0.530 g. The “Average weight (X ± S), End” value (MHCC-97H cells; gavage (PO) 36 mg/kg) was 21.01 ± 3.41, the Tumor inhibition rate (MHCC-97H cells; [4]) was 62.4% and the Weight of tumor (MHCC-97H cells; [4]) was 0.399 ± 0.486 g. The “Disappearance of liver tumor at end of experiment” value (MHCC-97H cells; intraperitoneal high dose 36 mg/kg, 9 animals) was “Liver cancer was gone in one animal”, the “Average weight (X ± S), End” value (MHCC-97H cells; [4]) was 21.18 ± 1.44 and the Tumor inhibition rate (MHCC-97H cells; [5]) was 55.5%. The Weight of tumor (MHCC-97H cells; [5]) was 0.473 ± 0.497 g, the “Average weight (X ± S), End” value (MHCC-97H cells; [5]) was 20.61 ± 2.33 and the Tumor inhibition rate (HepG2 cells [2]) was 61%. It also gave a Tumor inhibition rate (NCI-H460 cells) of 59%, an IC50 (A549 cells) of 2.19 µM and an IC50 (MHCC97-H cells) of 1.03 µM. For the same molecule, the IC50 (L02 cells) was 20.9 µM, the IC50 (H460 cells) was 1.07 µM and the IC50 (HepG2 cells [3]) was 5.67 µM. It also gave an IC50 (MKN-45 cells) of 1.55 µM, an IC50 (MHCC97-L cells) of 1.21 µM and an IC50 (SK-N-SH cells) of 1.19 µM. It also gave an IC50 (A375 cells) of 1.87 µM and an IC50 (K562 cells) of 2.58 µM.
